# From patent publication US7855290B2, “Pyridine derivatives and pyrimidine derivatives (3)” (Eisai R&D Management Co., Ltd., priority 2005, dated 2010)
# Key:
# Type in all cases: cell-based
# [1] = molecular target: T1, HGFR (Homo sapiens, UniProt P08581); assay: Inhibitory activity against the HGFR autophosphorylation using ELISA (MKN-45 cells); conditions: 1 hr with test substance
# T1 construct: endogenous in cells; host or cells: MKN-45 human gastric cancer cells
# Procedure, shortened: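 HGFR autophosphorylation measured by sandwich ELISA: anti-phosphotyrosine PY20 capture, anti-HGFR detection, HRP secondary, TMB read at 450 nm. Lysates came from MKN-45 cells given test substance for 1 h at 37° C in 1% FBS RPMI1640. Percent activity normalised between no-compound extract and lysis buffer alone.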
# [2] = system: Human umbilical vein endothelial cells (HUVECs); assay: Inhibitory activity against the growth of vascular endothelial cells stimulated with hepatocyte growth factor; conditions: HUVEC, HGF stimulated, third day, Cell Counting Kit-8, read-out: IC50 (cell proliferation activity)
# Protocol: Human umbilical vein endothelial cells (HUVECs) were isolated according to the reported method (Shin Seikagaku Jikken Koza, “Cell culturing techniques”, p 197-202), and then cultured in a 5% CO2 incubator (37° C.) using EGM-2 medium (purchased from Clonetics) until the cells reached confluency.
# HUVECs were suspended in a serum-free medium for endothelial cell culture (SFM, purchased from GIBCO RBL) containing 2% FBS. The cell suspension (2×10^4 cells/ml) was put in a cell culturing 96-well plate (purchased from NUNC, Production No. 167008) at 0.1 ml/well, and then cultured in a 5% CO2 incubator (37° C.) overnight. After the culture, each well was supplied with 50 μl of the test substance diluted with a 2% FBS-containing serum-free medium for endothelial cell culture and 50 μl of HGF (purchased from R&D) diluted at a concentration of 120 ng/ml with a 2% FBS-containing serum-free medium for endothelial cell culture, followed by culturing in a 5% CO2 incubator (37° C.). On the third day after the addition of the test substance, each well was supplied with 10 μl of Cell Counting Kit-8 (purchased from DOJINDO, Production No. 343-07623), and then the plate was incubated in a 5% CO2 incubator (37° C.) for about 2 hours. After the incubation, using a Plate Reader MTP-500 (Corona Electric), the absorbance of each well was determined at a measurement wavelength of 450 nm and a reference wavelength of 660 nm. While defining the absorbance of a well supplied with HGF and no test substance as 100% cell proliferation activity and the absorbance of the well supplied with no test substance and no HGF as 0% cell proliferation activity, the cell proliferation activity ratio (%) was calculated for each cell.
# [3] = system: Human gastric cancer cells (MKN-45); assay: Inhibitory activity against the proliferation of human gastric cancer cells (MKN-45); conditions: 72 h, MKN-45, 1% FBS RPMI1640, 3 days, Cell Counting Kit-8
# Procedure, shortened: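 MKN-45 cells seeded overnight in RPMI1640 with 1% FBS, then exposed to compound for 3 days at 37° C, 5% CO2. Viability read with CCK-8 after about 1.5 hrs, absorbance at 450 nm (reference 660 nm).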
# T1 sequence (P08581 25-1390): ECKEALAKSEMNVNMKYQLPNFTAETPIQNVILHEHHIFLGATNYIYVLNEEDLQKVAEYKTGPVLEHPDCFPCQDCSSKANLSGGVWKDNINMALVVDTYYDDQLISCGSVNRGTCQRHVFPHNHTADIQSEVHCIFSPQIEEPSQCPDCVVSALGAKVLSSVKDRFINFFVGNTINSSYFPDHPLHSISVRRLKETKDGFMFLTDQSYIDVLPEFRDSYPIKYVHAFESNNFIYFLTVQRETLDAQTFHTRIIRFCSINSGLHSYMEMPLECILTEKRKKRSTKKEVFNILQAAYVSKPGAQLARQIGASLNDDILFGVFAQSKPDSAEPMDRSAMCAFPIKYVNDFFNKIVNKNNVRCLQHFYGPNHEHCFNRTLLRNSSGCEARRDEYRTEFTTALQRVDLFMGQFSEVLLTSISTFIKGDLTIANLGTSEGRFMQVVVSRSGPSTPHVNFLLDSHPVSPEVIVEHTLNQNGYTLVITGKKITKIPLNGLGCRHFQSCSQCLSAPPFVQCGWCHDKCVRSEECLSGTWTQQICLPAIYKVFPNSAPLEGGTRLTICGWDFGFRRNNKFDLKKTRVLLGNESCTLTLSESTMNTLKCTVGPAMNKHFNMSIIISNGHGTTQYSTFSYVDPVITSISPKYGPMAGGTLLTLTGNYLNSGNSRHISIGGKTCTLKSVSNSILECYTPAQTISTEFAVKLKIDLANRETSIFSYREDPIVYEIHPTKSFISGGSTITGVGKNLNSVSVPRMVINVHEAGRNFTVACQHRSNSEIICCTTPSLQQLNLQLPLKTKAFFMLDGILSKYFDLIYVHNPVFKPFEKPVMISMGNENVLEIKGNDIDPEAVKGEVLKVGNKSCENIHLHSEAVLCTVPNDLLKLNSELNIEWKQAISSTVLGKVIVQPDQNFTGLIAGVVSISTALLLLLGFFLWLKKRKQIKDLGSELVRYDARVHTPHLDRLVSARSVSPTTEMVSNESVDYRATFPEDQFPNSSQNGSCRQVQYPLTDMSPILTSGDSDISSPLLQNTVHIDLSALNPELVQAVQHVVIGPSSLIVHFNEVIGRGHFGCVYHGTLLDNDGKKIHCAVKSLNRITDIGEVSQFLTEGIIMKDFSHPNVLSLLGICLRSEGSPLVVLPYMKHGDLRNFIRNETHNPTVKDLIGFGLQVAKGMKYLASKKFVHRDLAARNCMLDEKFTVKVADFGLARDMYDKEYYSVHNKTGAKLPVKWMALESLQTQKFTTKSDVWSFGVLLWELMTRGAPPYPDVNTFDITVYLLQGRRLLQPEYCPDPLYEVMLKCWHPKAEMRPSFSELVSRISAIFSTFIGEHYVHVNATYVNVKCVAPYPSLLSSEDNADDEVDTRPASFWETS
SMILES,IC50 [1],IC50 [3],IC50 [2]
"CN1CCC(N(C)C(=O)Nc2cc(Oc3ccc(NC(=O)C4(C(=O)Nc5ccc(F)cc5)CC4)cc3F)ccn2)CC1 [Example 1, N-(3-Fluoro-4-{[2-({[methyl(1-methylpiperidin-4-yl)amino]carbonyl}amino)pyridin-4-yl]oxy}phenyl)-N′-(4-fluorophenyl)cyclopropane-1.1-dicarboxamide]",18 nM,13 nM,4.6 nM
"CN1CCC(N(C)C(=O)Nc2cc(Oc3ccc(NC(=O)C4(C(=O)Nc5ccc(F)cc5)CC4)c(F)c3)ccn2)CC1 [Example 3, N-(2-Fluoro-4-{[2-({[methyl(1-methylpiperidin-4-yl)amino]carbonyl}amino)pyridin-4-yl]oxy}phenyl)-N′-(4-fluorophenyl)cyclopropane-1,1-dicarboxamide]",19 nM,15 nM,13 nM
"O=C(Nc1cc(Oc2ccc(NC(=O)C3(C(=O)Nc4ccc(F)cc4)CC3)c(F)c2)ccn1)N1CC(O)C1 [Example 72, N-{2-Fluoro-4-[(2-{[(3-hydroxyazetidin-1-yl)carbonyl]amino}pyridin-4-yl)oxy]phenyl}-N′-(4-fluorophenyl)cyclopropane-1,1-dicarboxamide]",10 nM,22 nM,–
O=C(Nc1cc(Oc2ccc(NC(=O)C3(C(=O)Nc4ccc(F)cc4)CC3)c(F)c2)ccn1)N1CC(CO)C1 [Example 75],13 nM,19 nM,–
"CN(C)C1CN(C(=O)Nc2cc(Oc3ccc(NC(=O)C4(C(=O)Nc5ccc(F)cc5)CC4)c(F)c3)ccn2)C1 [Example 76, N-(4-{[2-({[3-(Dimethylamino)azetidin-1-yl]carbonyl}amino)pyridin-4-yl]oxy}-2-fluorophenyl)-N′-(4-fluorophenyl)cyclopropane-1,1-dicarboxamide]",30 nM,19 nM,–
"CN(C)CC1CN(C(=O)Nc2cc(Oc3ccc(NC(=O)C4(C(=O)Nc5ccc(F)cc5)CC4)c(F)c3)ccn2)C1 [Example 77, N-[4-({2-[({3-[(Dimethylamino)methyl]azetidin-1-yl}carbonyl)amino]pyridin-4-yl}oxy)-2-fluorophenyl]-N′-(4-fluorophenyl)cyclopropane-1,1-dicarboxamide]",13 nM,19 nM,–
"COC1CN(C(=O)Nc2cc(Oc3ccc(NC(=O)C4(C(=O)Nc5ccc(F)cc5)CC4)c(F)c3)ccn2)C1 [Example 78, N-[2-Fluoro-4-[(2-{[(3-methoxyazetidin-1-yl)carbonyl]amino}pyridin-4-yl)oxy]phenyl}-N′-(4-fluorophenyl)cyclopropane-1,1-dicarboxamide]",15 nM,12 nM,–
COC1CN(C(=O)Nc2cc(Oc3ccc(NC(=O)C4(C(=O)Nc5ccc(F)cc5)CC4)cc3F)ccn2)C1 [Example 79],16 nM,15 nM,–
"O=C(Nc1cc(Oc2ccc(NC(=O)C3(C(=O)Nc4ccc(F)cc4)CC3)cc2F)ccn1)N1CC(O)C1 [Example 80, N-{3-Fluoro-4-[(2-{[(3-hydroxyazetidin-1-yl)carbonyl]amino}pyridin-4-yl)oxy]phenyl}-N′-(4-fluorophenyl)cyclopropane-1,1-dicarboxamide]",14 nM,18 nM,–
"O=C(Nc1cc(Oc2ccc(NC(=O)C3(C(=O)Nc4ccc(F)cc4)CC3)c(F)c2F)ccn1)N1CC(O)C1 [Example 106, N-[2,3-Difluoro-4-[(2-{[(3-hydroxyazetidin-1-yl)carbonyl]amino}pyridin-4-yl)oxy]phenyl}-N′-(4-fluorophenyl)cyclopropane-1,1-dicarboxamide]",39 nM,46 nM,–
"CN(C)CC1CN(C(=O)Nc2cc(Oc3ccc(NC(=O)C4(C(=O)Nc5ccc(F)cc5)CC4)c(F)c3F)ccn2)C1 [Example 107, N-[4-({2-[({3-[(Dimethylamino)methyl]azetidine-1-yl}carbonyl)amino]pyridin-4-yl}oxy)-2,3-difluorophenyl]-N′-(4-fluorophenyl)cyclopropane-1,1-dicarboxamide]",36 nM,21 nM,–

# The next lines start with results.
IC50 [1],IC50 [3],SMILES,IC50 [2]
21 nM,18 nM,"CN(C)CCN1CCN(C(=O)Nc2cc(Oc3ccc(NC(=O)C4(C(=O)Nc5ccc(F)cc5)CC4)c(F)c3)ccn2)CC1 [Example 2, N-[4-({2-[({4-[2-(Dimethylamino)ethyl]piperazin-1-yl}carbonyl)amino]pyridin-4-yl}oxy)-2-fluorophenyl]-N′-(4-fluorophenyl)cyclopropane-1,1-dicarboxamide]",18 nM
35 nM,18 nM,"CN(C)CCN1CCN(C(=O)Nc2cc(Oc3ccc(NC(=O)C4(C(=O)Nc5ccc(F)cc5)CC4)cc3F)ccn2)CC1 [Example 7, N-[4-({2-[({4-[2-(Dimethylamino)ethyl]piperazin-1-yl}carbonyl)amino]pyridin-4-yl}oxy)-3-fluorophenyl]-N′-(4-fluorophenyl)cyclopropane-1,1-dicarboxamide]",18 nM
11 nM,26 nM,"O=C(Nc1cc(Oc2ccc(NC(=O)C3(C(=O)Nc4ccc(F)cc4)CC3)c(F)c2)ccn1)N1CCC(N2CCC2)CC1 [Example 9, N-{4-[(2-{[(4-Azetidin-1-ylpiperidin-1-yl)carbonyl]amino}pyridin-4-yl)oxy]-2-fluorophenyl}-N′-(4-fluorophenyl)cyclopropane-1,1-dicarboxamide]",25 nM
8 nM,50 nM,"O=C(Nc1cc(Oc2ccc(NC(=O)C3(C(=O)Nc4ccc(F)cc4)CC3)c(F)c2)ccn1)N1CC(N2CCC2)C1 [Example 73, N-[4-({2-[(1,3′-Biazetidin-1′-ylcarbonyl)amino]pyridin-4-yl}oxy)-2-fluorophenyl]-N′-(4-fluorophenyl)cyclopropane-1,1-dicarboxamide]",–
14 nM,18 nM,"O=C(Nc1cc(Oc2cc(F)c(NC(=O)C3(C(=O)Nc4ccc(F)cc4)CC3)cc2F)ncn1)N1CC(CO)C1 [Example 99, N-(2,5-Difluoro-4-{[4-({[3-(hydroxymethyl)azetidin-1-yl]carbonyl}amino)pyrimidin-6-yl]oxy}phenyl)-N′-(4-fluorophenyl)cyclopropane-1,1-dicarboxamide]",–
9.4 nM,16 nM,"CN1CCC(N(C)C(=O)Nc2cc(Oc3cc(F)c(NC(=O)C4(C(=O)Nc5ccc(F)cc5)CC4)cc3F)ncn2)CC1 [Example 100, N-(2,5-Difluoro-4-{[4-({[methyl(1-methylpiperidin-4-yl)amino]carbonyl}amino)pyrimidin-6-yl]oxy}phenyl)-N′-(4-fluorophenyl)cyclopropane-1,1-dicarboxamide]",–
15 nM,16 nM,"CN1CCN(C2CCN(C(=O)Nc3cc(Oc4cc(F)c(NC(=O)C5(C(=O)Nc6ccc(F)cc6)CC5)cc4F)ncn3)CC2)CC1 [Example 101, N-(2,5-Difluoro-4-{[4-({[4-(4-methylpiperazin-1-yl)piperidin-1-yl]carbonyl}amino)pyrimidin-6-yl]oxy}phenyl)-N′-(4-fluorophenyl)cyclopropane-1,1-dicarboxamide]",–
41 nM,40 nM,"CN(C)C1CCN(C(=O)Nc2cc(Oc3cc(F)c(NC(=O)C4(C(=O)Nc5ccc(F)cc5)CC4)cc3F)ncn2)CC1 [Example 102, N-(4-{[4-({[4-(Dimethylamino)piperidin-1-yl]carbonyl}amino)pyrimidin-6-yl]oxy}-2,5-difluorophenyl)-N′-(4-fluorophenyl)cyclopropane-1,1-dicarboxamide]",–
12 nM,5.8 nM,"CN(C)C1CCN(C(=O)Nc2cc(Oc3cc(F)c(NC(=O)C4(C(=O)Nc5ccc(F)cc5)CC4)cc3F)ccn2)CC1 [Example 103, N-(4-{[2-({[4-(Dimethylamino)piperidin-1-yl]carbonyl}amino)pyridin-4-yl]oxy}-2,5-difluorophenyl)-N′-(4-fluorophenyl)cyclopropane-1,1-dicarboxamide]",–
15 nM,6.8 nM,"CN1CCN(C(=O)Nc2cc(Oc3cc(F)c(NC(=O)C4(C(=O)Nc5ccc(F)cc5)CC4)cc3F)ccn2)CC1 [Example 104, N-{2,5-Difluoro-4-[(2-{[(4-methylpiperazin-1-yl)carbonyl]amino}pyridin-4-yl]oxy}phenyl)-N′-(4-fluorophenyl)cyclopropane-1,1-dicarboxamide]",–
8.6 nM,4.1 nM,O=C(Nc1cc(Oc2cc(F)c(NC(=O)C3(C(=O)Nc4ccc(F)cc4)CC3)cc2F)ccn1)N1CCC(O)CC1 [Example 105],–
